Measurements taken from US9141756B1, “Multi-scale complex systems transdisciplinary analysis of response to therapy” (University of Southern California, priority 2010, dated 2015).
Like-named read-outs stand apart in the source and are kept apart here.

Columns and labels:
Eμ-myc lymphomas = settings: cited from earlier work
[1] = tested on: A431-sensitive cancer cell line; assay: SILAC proteomic profiling of response to gefitinib

| SMILES | Phenotype: response to CTX (Eμ-myc lymphomas; Eμ-Myc genotype) | Phenotype: response to CTX (Eμ-myc lymphomas; Eμ-Myc/Arf −/− genotype (lymphoma lacking ARF)) | Phenotype: response to CTX (Eμ-myc lymphomas; Eμ-Myc/Bcl2 genotype) | Phenotype: response to CTX (Eμ-myc lymphomas; Eμ-Myc/p53 −/− genotype (lymphoma lacking p53)) | proteins showing a statistically significant change in abundance following treatment ([1]; A431 cells, SILAC) | potential cell-surface biomarkers showing changes in abundance in response to therapy ([1]; both in vitro and in vivo (xenograft)) | additional proteins showing changes in the secretome and serum ([1]; secretome and serum) |
| --- | --- | --- | --- | --- | --- | --- | --- |
| O=P1(N(CCCl)CCCl)NCCCO1 (stereo not shown) [CTX, cyclophosphamide] | variable response to CTX | slightly resistant to CTX | medium resistant to CTX | highly resistant to CTX |  |  |  |
| COc1cc2ncnc(Nc3ccc(F)c(Cl)c3)c2cc1OCCCN1CCOCC1 [geftinib, gefitinib] |  |  |  |  | 400 | Ten | seven |
